Laboratory results as given in ChEMBL document CHEMBL6177997, “Design, Synthesis, and Evaluation of Novel ROCK Inhibitors for Glaucoma Treatment: Insights into In Vitro and In Vivo Efficacy and Safety” (J Med Chem, 2025).

Molecular target: MAP kinase-interacting serine/threonine-protein kinase 1 (Homo sapiens, UniProt Q9BUB5)
Experiment: Inhibition of MNK1 (unknown origin) at 5 uM preincubated for 10 mins followed by substrate addition and measured after 60 mins by ADP-glo kinase assay relative to control
Details: time 70.0 min

MAP kinase-interacting serine/threonine-protein kinase 1, sequence (Q9BUB5 whole entry, looked up): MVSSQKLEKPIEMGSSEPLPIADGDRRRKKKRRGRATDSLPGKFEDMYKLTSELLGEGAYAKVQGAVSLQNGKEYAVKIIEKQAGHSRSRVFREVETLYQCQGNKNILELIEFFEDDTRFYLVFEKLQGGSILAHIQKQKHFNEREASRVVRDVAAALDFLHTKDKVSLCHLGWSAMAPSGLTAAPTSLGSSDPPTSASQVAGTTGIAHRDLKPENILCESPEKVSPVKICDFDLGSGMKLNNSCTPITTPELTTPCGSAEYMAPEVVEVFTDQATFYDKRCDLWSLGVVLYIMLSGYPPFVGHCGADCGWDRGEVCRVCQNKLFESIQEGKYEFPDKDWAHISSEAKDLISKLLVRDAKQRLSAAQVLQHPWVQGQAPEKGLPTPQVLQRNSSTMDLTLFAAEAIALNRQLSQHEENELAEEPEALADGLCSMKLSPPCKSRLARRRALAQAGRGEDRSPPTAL

SMILES	inhibition [%]
O=C(c1ccc([N+](=O)[O-])cc1)N1CCC(c2cc(-c3ccnc4[nH]ccc34)[nH]n2)CC1	78.6
O=C(C1CCCCC1)N1CCC(c2cc(-c3ccnc4[nH]ccc34)[nH]n2)CC1	20.8
c1ccc(Oc2cccc(CN3CCC(c4cc(-c5ccnc6[nH]ccc56)[nH]n4)CC3)c2)cc1	68.1
FC(F)(F)c1cccc(CN2CCC(c3cc(-c4ccnc5[nH]ccc45)[nH]n3)CC2)c1	50.9
O=C(C1CCC1)N1CCC(c2cc(-c3ccnc4[nH]ccc34)[nH]n2)CC1	39.9
O=S(=O)(F)N1CCC(c2cc(-c3ccnc4[nH]ccc34)[nH]n2)CC1	68.3
COc1cc(C(=O)N2CCC(c3cc(-c4ccnc5[nH]ccc45)[nH]n3)CC2)cc(OC)c1OC	60.8
O=C(c1ccc(Cl)cc1)N1CCC(c2cc(-c3ccnc4[nH]ccc34)[nH]n2)CC1	82.2
COc1ccc(C(=O)N2CCC(c3cc(-c4ccnc5[nH]ccc45)[nH]n3)CC2)cc1	75.3
O=C(CC1CC1)N1CCC(c2cc(-c3ccnc4[nH]ccc34)[nH]n2)CC1	39.3
O=C(C1CCCC1)N1CCC(c2cc(-c3ccnc4[nH]ccc34)[nH]n2)CC1	47.5
CC(=O)N1CCC(c2cc(-c3ccnc4[nH]ccc34)[nH]n2)CC1	41.8
CC(=O)c1cccc(CN2CCC(c3cc(-c4ccnc5[nH]ccc45)[nH]n3)CC2)c1	69.2

More lines, now with the values ahead:

inhibition [%]	SMILES
67.2	O=C(c1ccc(F)c(F)c1)N1CCC(c2cc(-c3ccnc4[nH]ccc34)[nH]n2)CC1
73	COc1ccc(C(=O)N2CCC(c3cc(-c4ccnc5[nH]ccc45)[nH]n3)CC2)cc1OC
71.4	N#CCN1CCC(c2cc(-c3ccnc4[nH]ccc34)[nH]n2)CC1
77.1	COC(=O)c1ccc(C(=O)N2CCC(c3cc(-c4ccnc5[nH]ccc45)[nH]n3)CC2)cc1
71.7	CC(=O)c1ccc(C(=O)N2CCC(c3cc(-c4ccnc5[nH]ccc45)[nH]n3)CC2)cc1
61.1	O=C(c1ccc(F)cc1)N1CCC(c2cc(-c3ccnc4[nH]ccc34)[nH]n2)CC1
74.4	Cc1ccc(C(=O)N2CCC(c3cc(-c4ccnc5[nH]ccc45)[nH]n3)CC2)cc1

Molecular target: MAP kinase-interacting serine/threonine-protein kinase 2 (Homo sapiens) (UniProt Q9HBH9)
Sequence (Q9HBH9 whole entry, looked up): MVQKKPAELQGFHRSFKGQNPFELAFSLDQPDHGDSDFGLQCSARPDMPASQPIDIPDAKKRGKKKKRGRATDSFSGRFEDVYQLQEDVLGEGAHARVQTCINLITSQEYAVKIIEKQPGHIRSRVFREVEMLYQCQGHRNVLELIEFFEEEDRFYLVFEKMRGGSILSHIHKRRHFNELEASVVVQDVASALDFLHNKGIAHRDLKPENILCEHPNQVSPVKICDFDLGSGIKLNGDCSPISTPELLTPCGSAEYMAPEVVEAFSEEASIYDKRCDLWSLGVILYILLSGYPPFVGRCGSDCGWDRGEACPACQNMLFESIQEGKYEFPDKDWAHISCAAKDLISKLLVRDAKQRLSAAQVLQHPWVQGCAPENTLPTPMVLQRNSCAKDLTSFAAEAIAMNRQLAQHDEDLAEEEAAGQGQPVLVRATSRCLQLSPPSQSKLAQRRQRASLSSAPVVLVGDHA
Experiment: Inhibition of MNK2 (unknown origin) at 5 uM preincubated for 10 mins followed by substrate addition and measured after 60 mins by ADP-glo kinase assay relative to control
Details: time 70.0 min

SMILES	inhibition [%]
O=C(c1ccc([N+](=O)[O-])cc1)N1CCC(c2cc(-c3ccnc4[nH]ccc34)[nH]n2)CC1	63.5
O=C(C1CCCCC1)N1CCC(c2cc(-c3ccnc4[nH]ccc34)[nH]n2)CC1	14.6
c1ccc(Oc2cccc(CN3CCC(c4cc(-c5ccnc6[nH]ccc56)[nH]n4)CC3)c2)cc1	73.5
FC(F)(F)c1cccc(CN2CCC(c3cc(-c4ccnc5[nH]ccc45)[nH]n3)CC2)c1	57.2
O=C(C1CCC1)N1CCC(c2cc(-c3ccnc4[nH]ccc34)[nH]n2)CC1	42.3
O=S(=O)(F)N1CCC(c2cc(-c3ccnc4[nH]ccc34)[nH]n2)CC1	86.7
COc1cc(C(=O)N2CCC(c3cc(-c4ccnc5[nH]ccc45)[nH]n3)CC2)cc(OC)c1OC	74.4
O=C(c1ccc(Cl)cc1)N1CCC(c2cc(-c3ccnc4[nH]ccc34)[nH]n2)CC1	58.4
COc1ccc(C(=O)N2CCC(c3cc(-c4ccnc5[nH]ccc45)[nH]n3)CC2)cc1	54.7
O=C(CC1CC1)N1CCC(c2cc(-c3ccnc4[nH]ccc34)[nH]n2)CC1	46.5
O=C(C1CCCC1)N1CCC(c2cc(-c3ccnc4[nH]ccc34)[nH]n2)CC1	44.4
CC(=O)N1CCC(c2cc(-c3ccnc4[nH]ccc34)[nH]n2)CC1	58
CC(=O)c1cccc(CN2CCC(c3cc(-c4ccnc5[nH]ccc45)[nH]n3)CC2)c1	89

Next, values leading:

inhibition [%]	SMILES
53.3	O=C(c1ccc(F)c(F)c1)N1CCC(c2cc(-c3ccnc4[nH]ccc34)[nH]n2)CC1
59.7	COc1ccc(C(=O)N2CCC(c3cc(-c4ccnc5[nH]ccc45)[nH]n3)CC2)cc1OC
84.4	N#CCN1CCC(c2cc(-c3ccnc4[nH]ccc34)[nH]n2)CC1
53.4	COC(=O)c1ccc(C(=O)N2CCC(c3cc(-c4ccnc5[nH]ccc45)[nH]n3)CC2)cc1
60.9	CC(=O)c1ccc(C(=O)N2CCC(c3cc(-c4ccnc5[nH]ccc45)[nH]n3)CC2)cc1
47.4	O=C(c1ccc(F)cc1)N1CCC(c2cc(-c3ccnc4[nH]ccc34)[nH]n2)CC1
52.2	Cc1ccc(C(=O)N2CCC(c3cc(-c4ccnc5[nH]ccc45)[nH]n3)CC2)cc1

Molecular target: Rho-associated protein kinase 1 (Homo sapiens, UniProt Q13464)
Sequence (Q13464 whole entry): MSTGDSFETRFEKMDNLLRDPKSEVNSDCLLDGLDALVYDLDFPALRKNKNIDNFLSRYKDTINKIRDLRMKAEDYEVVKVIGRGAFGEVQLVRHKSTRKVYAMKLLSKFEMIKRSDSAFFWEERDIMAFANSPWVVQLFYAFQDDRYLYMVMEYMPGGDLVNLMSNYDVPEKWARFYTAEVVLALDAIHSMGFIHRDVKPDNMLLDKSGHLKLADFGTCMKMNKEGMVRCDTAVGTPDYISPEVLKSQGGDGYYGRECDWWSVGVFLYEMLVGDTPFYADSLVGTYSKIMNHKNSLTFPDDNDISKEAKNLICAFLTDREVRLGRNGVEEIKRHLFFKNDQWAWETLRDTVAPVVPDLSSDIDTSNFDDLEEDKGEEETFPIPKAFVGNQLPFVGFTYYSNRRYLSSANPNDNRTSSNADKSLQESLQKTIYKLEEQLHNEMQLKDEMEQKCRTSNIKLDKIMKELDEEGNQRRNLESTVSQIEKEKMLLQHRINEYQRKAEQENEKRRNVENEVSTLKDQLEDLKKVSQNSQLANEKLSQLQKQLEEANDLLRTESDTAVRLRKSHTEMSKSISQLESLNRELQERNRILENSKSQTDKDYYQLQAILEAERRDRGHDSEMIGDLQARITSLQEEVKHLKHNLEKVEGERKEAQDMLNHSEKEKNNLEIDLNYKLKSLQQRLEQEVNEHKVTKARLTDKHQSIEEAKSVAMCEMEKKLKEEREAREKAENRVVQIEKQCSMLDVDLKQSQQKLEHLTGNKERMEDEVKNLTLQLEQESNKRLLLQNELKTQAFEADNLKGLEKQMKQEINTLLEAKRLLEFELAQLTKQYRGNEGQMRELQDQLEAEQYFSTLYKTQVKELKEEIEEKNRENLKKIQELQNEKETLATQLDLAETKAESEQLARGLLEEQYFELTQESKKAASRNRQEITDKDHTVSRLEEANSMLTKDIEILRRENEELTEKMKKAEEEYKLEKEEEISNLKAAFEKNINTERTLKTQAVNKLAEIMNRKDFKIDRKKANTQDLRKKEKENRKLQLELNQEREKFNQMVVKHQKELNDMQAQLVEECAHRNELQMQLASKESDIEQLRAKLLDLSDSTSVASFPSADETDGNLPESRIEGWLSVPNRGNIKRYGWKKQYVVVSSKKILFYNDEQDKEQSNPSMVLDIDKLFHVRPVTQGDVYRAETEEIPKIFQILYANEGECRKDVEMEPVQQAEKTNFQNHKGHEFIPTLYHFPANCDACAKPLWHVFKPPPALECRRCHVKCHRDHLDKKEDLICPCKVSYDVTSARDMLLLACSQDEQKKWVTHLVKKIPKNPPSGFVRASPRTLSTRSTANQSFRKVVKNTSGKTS
Experiment: Inhibition of ROCK1 (unknown origin) incubated for 40 mins in presence of ATP by ADP-glo assay
Details: not given

SMILES	IC50 [nM]
O=C(c1ccc([N+](=O)[O-])cc1)N1CCC(c2cc(-c3ccnc4[nH]ccc34)[nH]n2)CC1	823
O=C(C1CCCCC1)N1CCC(c2cc(-c3ccnc4[nH]ccc34)[nH]n2)CC1	1720
c1ccc(Oc2cccc(CN3CCC(c4cc(-c5ccnc6[nH]ccc56)[nH]n4)CC3)c2)cc1	1340
FC(F)(F)c1cccc(CN2CCC(c3cc(-c4ccnc5[nH]ccc45)[nH]n3)CC2)c1	1180
O=C(C1CCC1)N1CCC(c2cc(-c3ccnc4[nH]ccc34)[nH]n2)CC1	846
O=S(=O)(F)N1CCC(c2cc(-c3ccnc4[nH]ccc34)[nH]n2)CC1	229
COc1cc(C(=O)N2CCC(c3cc(-c4ccnc5[nH]ccc45)[nH]n3)CC2)cc(OC)c1OC	1490
O=C(c1ccc(Cl)cc1)N1CCC(c2cc(-c3ccnc4[nH]ccc34)[nH]n2)CC1	899
COc1ccc(C(=O)N2CCC(c3cc(-c4ccnc5[nH]ccc45)[nH]n3)CC2)cc1	829
O=C(CC1CC1)N1CCC(c2cc(-c3ccnc4[nH]ccc34)[nH]n2)CC1	1180
O=C(C1CCCC1)N1CCC(c2cc(-c3ccnc4[nH]ccc34)[nH]n2)CC1	1980
CC(=O)N1CCC(c2cc(-c3ccnc4[nH]ccc34)[nH]n2)CC1	1220
CC(=O)c1cccc(CN2CCC(c3cc(-c4ccnc5[nH]ccc45)[nH]n3)CC2)c1	895

The next lines start with the values.

IC50 [nM]	SMILES
699	O=C(c1ccc(F)c(F)c1)N1CCC(c2cc(-c3ccnc4[nH]ccc34)[nH]n2)CC1
696	COc1ccc(C(=O)N2CCC(c3cc(-c4ccnc5[nH]ccc45)[nH]n3)CC2)cc1OC
261	N#CCN1CCC(c2cc(-c3ccnc4[nH]ccc34)[nH]n2)CC1
777	COC(=O)c1ccc(C(=O)N2CCC(c3cc(-c4ccnc5[nH]ccc45)[nH]n3)CC2)cc1
512	CC(=O)c1ccc(C(=O)N2CCC(c3cc(-c4ccnc5[nH]ccc45)[nH]n3)CC2)cc1
821	O=C(c1ccc(F)cc1)N1CCC(c2cc(-c3ccnc4[nH]ccc34)[nH]n2)CC1
773	Cc1ccc(C(=O)N2CCC(c3cc(-c4ccnc5[nH]ccc45)[nH]n3)CC2)cc1

Molecular target: Rho-associated protein kinase 2 (Homo sapiens, UniProt O75116)
Sequence (O75116 whole entry): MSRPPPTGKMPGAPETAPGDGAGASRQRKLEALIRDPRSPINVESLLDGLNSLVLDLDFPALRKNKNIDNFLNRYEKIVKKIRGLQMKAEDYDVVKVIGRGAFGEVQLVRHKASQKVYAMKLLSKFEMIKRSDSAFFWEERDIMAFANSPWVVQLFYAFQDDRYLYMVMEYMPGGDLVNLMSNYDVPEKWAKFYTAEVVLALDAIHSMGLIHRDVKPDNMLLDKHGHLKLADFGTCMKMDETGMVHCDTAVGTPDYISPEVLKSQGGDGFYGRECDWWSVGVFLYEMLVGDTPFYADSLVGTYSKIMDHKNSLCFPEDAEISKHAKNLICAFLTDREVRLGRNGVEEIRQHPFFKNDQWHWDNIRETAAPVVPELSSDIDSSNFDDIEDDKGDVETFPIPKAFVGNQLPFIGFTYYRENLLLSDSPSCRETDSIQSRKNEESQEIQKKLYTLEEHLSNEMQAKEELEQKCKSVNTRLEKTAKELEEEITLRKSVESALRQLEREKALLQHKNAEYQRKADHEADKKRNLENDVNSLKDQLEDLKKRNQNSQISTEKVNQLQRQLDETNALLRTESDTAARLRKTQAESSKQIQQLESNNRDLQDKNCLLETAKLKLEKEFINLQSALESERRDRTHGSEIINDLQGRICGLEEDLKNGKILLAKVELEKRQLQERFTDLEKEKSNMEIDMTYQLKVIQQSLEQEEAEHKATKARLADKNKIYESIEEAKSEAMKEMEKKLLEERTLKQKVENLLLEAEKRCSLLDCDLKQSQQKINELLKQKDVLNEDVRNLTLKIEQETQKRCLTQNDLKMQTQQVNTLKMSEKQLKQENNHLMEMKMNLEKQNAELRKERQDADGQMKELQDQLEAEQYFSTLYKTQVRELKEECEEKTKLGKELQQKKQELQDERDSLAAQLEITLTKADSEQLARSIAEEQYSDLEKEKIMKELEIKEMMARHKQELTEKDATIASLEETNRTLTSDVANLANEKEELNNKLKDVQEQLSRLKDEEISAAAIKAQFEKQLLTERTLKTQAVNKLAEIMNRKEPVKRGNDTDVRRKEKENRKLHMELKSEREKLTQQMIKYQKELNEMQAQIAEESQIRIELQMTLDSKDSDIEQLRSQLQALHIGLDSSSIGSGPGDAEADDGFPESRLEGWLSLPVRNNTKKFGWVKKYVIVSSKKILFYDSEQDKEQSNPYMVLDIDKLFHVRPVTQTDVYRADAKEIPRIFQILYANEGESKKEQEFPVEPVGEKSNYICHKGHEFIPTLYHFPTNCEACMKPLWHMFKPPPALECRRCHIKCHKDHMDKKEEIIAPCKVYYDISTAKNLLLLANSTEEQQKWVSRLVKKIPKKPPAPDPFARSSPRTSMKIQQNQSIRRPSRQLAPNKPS
Experiment: Inhibition of ROCK2 (unknown origin) incubated for 40 mins in presence of ATP by ADP-glo assay
Details: not given

SMILES	IC50 [nM]
O=C(c1ccc([N+](=O)[O-])cc1)N1CCC(c2cc(-c3ccnc4[nH]ccc34)[nH]n2)CC1	699
O=C(C1CCCCC1)N1CCC(c2cc(-c3ccnc4[nH]ccc34)[nH]n2)CC1	2110
c1ccc(Oc2cccc(CN3CCC(c4cc(-c5ccnc6[nH]ccc56)[nH]n4)CC3)c2)cc1	1060
FC(F)(F)c1cccc(CN2CCC(c3cc(-c4ccnc5[nH]ccc45)[nH]n3)CC2)c1	969
O=C(C1CCC1)N1CCC(c2cc(-c3ccnc4[nH]ccc34)[nH]n2)CC1	1050
O=S(=O)(F)N1CCC(c2cc(-c3ccnc4[nH]ccc34)[nH]n2)CC1	329
COc1cc(C(=O)N2CCC(c3cc(-c4ccnc5[nH]ccc45)[nH]n3)CC2)cc(OC)c1OC	1450
O=C(c1ccc(Cl)cc1)N1CCC(c2cc(-c3ccnc4[nH]ccc34)[nH]n2)CC1	369
COc1ccc(C(=O)N2CCC(c3cc(-c4ccnc5[nH]ccc45)[nH]n3)CC2)cc1	492
O=C(CC1CC1)N1CCC(c2cc(-c3ccnc4[nH]ccc34)[nH]n2)CC1	787
O=C(C1CCCC1)N1CCC(c2cc(-c3ccnc4[nH]ccc34)[nH]n2)CC1	3880
CC(=O)N1CCC(c2cc(-c3ccnc4[nH]ccc34)[nH]n2)CC1	980
CC(=O)c1cccc(CN2CCC(c3cc(-c4ccnc5[nH]ccc45)[nH]n3)CC2)c1	823

Further lines, results first:

IC50 [nM]	SMILES
907	O=C(c1ccc(F)c(F)c1)N1CCC(c2cc(-c3ccnc4[nH]ccc34)[nH]n2)CC1
362	COc1ccc(C(=O)N2CCC(c3cc(-c4ccnc5[nH]ccc45)[nH]n3)CC2)cc1OC
130	N#CCN1CCC(c2cc(-c3ccnc4[nH]ccc34)[nH]n2)CC1
401	COC(=O)c1ccc(C(=O)N2CCC(c3cc(-c4ccnc5[nH]ccc45)[nH]n3)CC2)cc1
468	CC(=O)c1ccc(C(=O)N2CCC(c3cc(-c4ccnc5[nH]ccc45)[nH]n3)CC2)cc1
833	O=C(c1ccc(F)cc1)N1CCC(c2cc(-c3ccnc4[nH]ccc34)[nH]n2)CC1
484	Cc1ccc(C(=O)N2CCC(c3cc(-c4ccnc5[nH]ccc45)[nH]n3)CC2)cc1
